Here are results for four compounds from article PMC11477000, “Enantioselective Binding of Proton Pump Inhibitors to Alpha1-Acid Glycoprotein and Human Serum Albumin—A Chromatographic, Spectroscopic, and In Silico Study” (International Journal of Molecular Sciences, 2024).

Molecules are shown by their SMILES. “And” between values parts separate entries of the source, which are not always exact repeats. Identical values can stand only once.

Series [1] has as its system α1-acid glycoprotein (AGP). Nature of the series: van 't Hoff thermodynamic analysis on AGP column. The class given is binding, human. The settings on record: Δ(ΔH°)/Δ(ΔS°). How it is done: The temperature effect was investigated at pH 7 and a 95:5 buffer:IPA eluents ratio, between 10 and 30 °C on both columns. […] The determination of thermodynamic parameters can provide valuable insights into the process of enantiodiscrimination, including its mechanistic aspects. The applied classical van ’t Hoff methodology postulates the existence of solely enantioselective interaction sites on the stationary phase. Nonetheless, it should be emphasized that a more realistic approach would encompass both enantioselective and non-enantioselective interactions. The isoenantioselective temperatures (Tiso) were calculated by dividing Δ(ΔH°) by Δ(ΔS°). At this temperature, enthalpy and entropy compensations negate each other, resulting in the coelution of the two enantiomers and no separation. […]
In the equation, R represents the universal gas constant, T represents the absolute temperature in Kelvin, and k represents the retention factor of the enantiomers. ΔH° stands for the standard enthalpy, while ΔS° represents the standard entropy change of transfer of the solute from the mobile phase to the stationary phase. Φ is the phase ratio of the column. […] Similarly, the difference in the change of standard enthalpy, Δ(ΔH°), and standard entropy, Δ(ΔS°), for the two enantiomers was calculated as follows:(6) lnα=−ΔΔH°/RT+ΔΔS°/R

The next series concerns the target BSA. The settings on record: racemic, ref [39]; cited from earlier work.
For the next series, the target named is T1, HSA (Homo sapiens, UniProt P02768).
T1 construct: purchased Sigma-Aldrich
Nature of the series: UV titration (Benesi–Hildebrand) with HSA. Format: binding. The settings on record: n = 3, 1 μM HSA, pH 7.4 phosphate buffer, 24 °C, 278 nm, read-out: logKHSA ± Stdev. (logarithm of stability constant) (converted). The procedure: The UV-Vis absorption assay is a straightforward and relatively simple method to examine the interactions between small molecules and macromolecules. Changes in the structure of the protein caused by the interacting ligand can lead to alterations in the absorption spectrum. […] Fixed wavelength measurements were conducted at the absorption maxima of AGP and HSA. […] The change in the absorbance and wavelength maximum in the UV spectra during the titration refers to the complex formation between proteins and PPIs. The Benesi–Hildebrand method was used to determine the stability constants based on Equation (7).
The absorption spectra were recorded on a Jasco V-750 spectrophotometer (Jasco, Tokyo, Japan) at 24 °C using 1.0 cm path-length quartz cuvettes. Then, 1 μM HSA and AGP were dissolved in a sodium phosphate buffer solution (pH 7.4; 0.1 M) and their concentration was kept constant. The PPIs were dissolved in DMSO, and further diluted with the AGP or HSA solution. Next, 1000 μL of 1 μM HSA and AGP solutions was titrated with the PPI stock solution in 1 μL steps. The concentration of the PPIs was set to 4.00, 7.98, 11.96, 15.94, 19.90, 23.86, 27.81, and 31.75 μM. The binding constants were determined using the Benesi–Hildebrand equation:(7) A0/A−A0=εPPI/εAPPI−εPPI+εPPI/εAPPI−εPPI×1/K×[C] where A0 is the absorbance of the HSA or AGP at 278 nm, A is the absorbance of the formed complex also at 278 nm, εPPI is the extinction coefficient of the actual PPI, εAPPI is the extinction coefficient of the albumin or AGP and PPI complex, K is the binding coefficient, and [C] is the concentration of the investigated PPI. The plot of A0/A − A0 versus C^−1 has a slope of K^−1. All experiments were performed in triplicate.

Series [2] deals with α1-acid glycoprotein (AGP). The series can be described thus: Bound percentage by HPLC on AGP column, extrapolation to zero organic modifier. The class given is in vitro ADME, human. The settings on record: for Bound percentage (b%), average: average of IPA, EtOH, MeOH. How it is done:
Chromatographic columns containing proteins can be used to determine the percentage of drug binding. A plot of the natural logarithm of the retention factors against the proportion of organic modifiers was created. […] The intercept of these linear equations can be used to calculate the bound percentage according to Equation (4) (see in Section 3.2).
Chromatographic measurements were carried out on two separate HPLC systems. The AGP binding study was performed on a Waters 2695e chromatographic system paired with a Waters 2996 PDA detector, controlled by Empower 3 FR5 (Waters Corp., Milford, MA, USA), while the HSA binding study was performed on an Agilent 1100 HPLC system, consisting of an inline degasser (G1322A), a quaternary pump (G1311A), an automatic injector (G1329A) paired with sample thermostat (G1330A), a column thermostat (G1316A), and a diode array detector (G1315A) with Agilent Chemstation B04.03-SP2 software (Agilent, Bronnwald, Germany). For the binding studies, two protein-based chiral stationary phases were utilized. The chromatographic binding study for AGP was conducted on a ChromTech Chiral-AGP column (150 mm × 4.0 mm; ChromTech Ltd., Congleton, UK), while the binding study for HSA was performed on a Daicel Chiralpak HSA column (50 mm × 4.0 mm; Daicel Corp., Osaka, Japan). The detection wavelength was 210 nm for all measurements. The stock solutions of PPIs were prepared at a concentration of 1 mg/mL in MeOH. Subsequent dilutions were prepared using water. The injected samples were mixed and diluted from the stock solutions. The final concentration for the eutomer was 0.2 mg/mL, and for the distomer, it was 0.1 mg/mL. A volume of 2 μL was injected. To mitigate the instability of PPIs in aqueous solutions, the samples were kept at a temperature of 4 °C. […] After 24 h, new samples were prepared for injection. Chromatographic parameters were calculated based on the following equations. The retention factor (k) was calculated as:(1) k=(tr−t0)/t0 where tr is the retention time of the investigated analyte, and t0 is the dead time, determined as the first peak appearance in the chromatogram. Resolution was calculated based on the following equation:(2) Rs=2(t2−t1)/(w1+w2) where t2 and t1 are the retention times of the second and first eluted enantiomers, respectively, while w is the peak width. The separation factor (α) was calculated as follows:(3) α=k2/k1 where k1 and k2 are the retention factors of the first- and second-eluting enantiomers, respectively. The k values were also used to calculate the protein-bound percentage (b%) using Equation (4):(4) b%=k/1+k×100

Where [3] appears, read: extrapolation to zero percent EtOH.
Setting [4] is: extrapolation to zero percent IPA.
Where [5] appears, read: extrapolation to zero percent MeOH.

T1 sequence (P02768 25-609): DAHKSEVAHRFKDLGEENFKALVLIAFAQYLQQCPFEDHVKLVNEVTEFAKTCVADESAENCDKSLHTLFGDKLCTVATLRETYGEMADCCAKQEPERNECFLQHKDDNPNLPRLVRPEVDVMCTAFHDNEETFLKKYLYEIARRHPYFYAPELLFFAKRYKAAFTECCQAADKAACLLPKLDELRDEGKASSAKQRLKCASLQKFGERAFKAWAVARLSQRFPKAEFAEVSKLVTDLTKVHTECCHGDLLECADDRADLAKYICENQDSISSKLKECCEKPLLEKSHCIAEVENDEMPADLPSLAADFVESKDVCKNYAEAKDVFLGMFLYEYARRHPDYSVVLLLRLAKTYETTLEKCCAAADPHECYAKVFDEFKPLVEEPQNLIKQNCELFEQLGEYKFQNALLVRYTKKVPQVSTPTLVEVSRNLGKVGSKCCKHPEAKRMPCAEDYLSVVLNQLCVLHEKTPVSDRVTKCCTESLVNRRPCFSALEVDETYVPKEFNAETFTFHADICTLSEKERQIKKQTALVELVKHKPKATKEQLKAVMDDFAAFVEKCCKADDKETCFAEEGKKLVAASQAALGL

`Cc1c(OCC(F)(F)F)ccnc1C[S+]([O-])c1nc2ccccc2[nH]1` (stereo not drawn) [Lansoprazole, lansoprazole] registered a Tiso isoenantioselective temperature in series [1] of −16.3 °C.
With `COc1ccc2[nH]c([S+]([O-])Cc3ncc(C)c(OC)c3C)nc2c1` (stereo not drawn) [Omeprazole, omeprazole], the logK at BSA is reported as 4.58.
As for `Cc1c(OCC(F)(F)F)ccnc1C[S@@+]([O-])c1nc2ccccc2[nH]1` [R-lansoprazole, dexlansoprazole], on HSA, the Kd is 60.3 µM. Besides, the “Bound percentage (b%), average” value in series [2] was 97.56% and 97.56 ± 1.39%. Besides, the “Bound percentage (b%)” value in series [2] (setting [3]) is on record as 97.60%; in series [2] (setting [4]), 98.93%; in series [2] (setting [5]), 96.16%.
For the compound `Cc1c(OCC(F)(F)F)ccnc1C[S@+]([O-])c1nc2ccccc2[nH]1` [S-lansoprazole], the Kd at HSA was 21.9 µM. The “Bound percentage (b%), average” value in series [2] was 96.86% and 96.86 ± 1.79%. The “Bound percentage (b%)” value is 96.92% in series [2] (setting [3]), 98.62% in series [2] (setting [4]) and 95.04% in series [2] (setting [5]).
